Values after ≈ are worked out from the molar mass of the structure shown. Where two headings read alike, the source gives them in different places.
Columns and labels:
[1] = tested on: Staphylococcus aureus ATCC 25923; test: Agar well diffusion, S. aureus; format: cell-based; details: for zone of inhibition at 1000 µg/mL: Staphylococcus aureus; for Antibacterial activity in words: agar well diffusion, particularly S. aureus
Procedure: (§1) The antimicrobial potential of the synthesized coumarin–triazole–isatin hybrids was evaluated by the agar well diffusion method. The activity was tested against a variety of Gram-positive bacteria (Staphylococcus aureus ATCC 25923 and ATCC 902710, Staphylococcus epidermidis ATCC 12228, Streptococcus pyogenes ATCC 19615, Enterococcus faecalis ATCC 51299), Gram-negative bacteria (Escherichia coli ATCC 25922, Haemophilus influenzae ATCC 49766, Pseudomonas aeruginosa ATCC 27853, Salmonella typhi ATCC 14028, Neisseria meningitidis ATCC 13090, Neisseria gonorrhoeae ATCC 43069), and fungi (Candida albicans ATCC 60193 and ATCC 90028, Candida orientalis ATCC 6258). All microbial strains were obtained from Microbiologics (St.Cloud, MN, USA).
(§2) The test compounds were dissolved in DMSO to obtain stock solutions (1 mg/mL). Each compound (60 µL) was transferred into wells (6 mm in diameter) that were previously perforated into agar plates inoculated with microbial suspensions standardized to 0.5 McFarland for bacteria and 2 McFarland for Candida spp. DMSO was used as a negative control, while commercial antibiotic disks of novobiocin (5 μg), ampicillin (10 μg), and ciprofloxacin (5 μg) served as positive controls. Antimicrobial activity was assessed by measuring the diameter of zones of inhibition (ZOIs) in millimeters. All tests were conducted in triplicate.

[2] = tested on: Staphylococcus epidermidis ATCC 12228; test: Agar well diffusion, S. epidermidis; format: cell-based; details: ATCC12228, read-out: Staphylococcus epidermidis ATCC 12228 ZOI, 60 µL of 1 mg/mL per well, ZOI including the well (6 mm), ± SD, n = 3, ciprofloxacin disk 5 μg
Procedure: as §1, §2

S. aureus ATCC 25923 = test: MIC by agar dilution, S. aureus; format: cell-based; details: Staphylococcus aureus, ATCC25923, 0.39–200 μg/mL, read-out: MIC against S. aureus
[3] = tested on: S. epidermidis ATCC 12228; test: MIC by agar dilution, S. epidermidis; format: cell-based; details: Staphylococcus epidermidis, ATCC12228, 0.39–200 μg/mL, read-out: MIC against S. epidermidis
[4] = target: T1, BChE from equine serum (eqBuChE) (Equus caballus, UniProt P81908); test: biochemical; details: for inhibition at 20 µM: read-out: BChE % of Inhibition (Conc. 20 μM), 20 μM; for inhibition at 20 µM / IC50: average ± standard error (n = 3); for Selectivity BChE/AChE: ratio of AChE and BChE IC50
T1 construct: BChE from equine serum (BChE, EC 3.1.1.8); purchased Sigma-Aldrich (St. Louis, MO, USA); host or cells: equine serum
T1 sequence (P81908 whole entry): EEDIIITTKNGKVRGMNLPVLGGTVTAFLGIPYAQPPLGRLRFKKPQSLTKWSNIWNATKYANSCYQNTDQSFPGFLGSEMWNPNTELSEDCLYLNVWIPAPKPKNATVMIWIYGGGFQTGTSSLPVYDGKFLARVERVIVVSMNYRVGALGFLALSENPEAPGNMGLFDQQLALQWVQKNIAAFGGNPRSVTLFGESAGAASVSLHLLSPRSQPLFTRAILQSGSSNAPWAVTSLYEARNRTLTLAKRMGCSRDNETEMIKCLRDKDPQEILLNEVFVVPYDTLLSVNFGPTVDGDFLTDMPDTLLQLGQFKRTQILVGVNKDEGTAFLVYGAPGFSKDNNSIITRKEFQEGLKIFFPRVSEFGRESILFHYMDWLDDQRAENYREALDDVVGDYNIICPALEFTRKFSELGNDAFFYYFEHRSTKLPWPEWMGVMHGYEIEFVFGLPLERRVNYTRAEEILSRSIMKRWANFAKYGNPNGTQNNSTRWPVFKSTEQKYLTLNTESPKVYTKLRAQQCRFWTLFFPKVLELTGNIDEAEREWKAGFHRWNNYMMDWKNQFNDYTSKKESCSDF
Procedure: The in vitro cholinesterase inhibitory activity of the synthesized hybrid molecules was evaluated using a modified Ellman’s assay, optimized for 96-well microplate application. AChE from Electrophorus electricus (AChE, EC 3.1.1.7), BChE from equine serum (BChE, EC 3.1.1.8), acetylthiocholine iodide (ATCh), butyrylthiocholine iodide (BTCh), and 5,5′-dithiobis(2-nitrobenzoic acid) were purchased from Sigma-Aldrich (St. Louis, MO, USA) and used without further purification.
Test compounds were initially dissolved in dimethylsulphoxide (DMSO) to yield 1 mM stock solutions and subsequently diluted with 0.1 M phosphate buffer (pH 8.0) to prepare working solutions.
For the assay, 20 µL of compound solution was added to 140 µL of 0.1 M phosphate buffer (pH 8.0) in each well, followed by 20 µL of enzyme solution (AChE or BuChE, 100 U/L). After incubation at room temperature for 10 min, the reaction was initiated by adding 10 µL of DTNB (0.01 M) and 10 µL of substrate (ATCh or BTCh, 0.015 M). […] The percentage inhibition of enzyme activity was calculated using the following equation:(1) % Inhibition=Absorbance of control−Apsorbance of sample/Absorbance of control×100 where the absorbance of the control represents the maximum enzyme activity (without inhibition), and the absorbance of the sample corresponds to the enzyme activity in the presence of the tested compound. Appropriate blanks were included to account for background absorbance and to correct for any intrinsic color of the tested compounds.
All experiments were performed in triplicate.

[5] = target: T2, AChE from Electrophorus electricus (eeAChE) (Electrophorus electricus, UniProt O42275); test: biochemical; details: for inhibition at 20 µM: read-out: AChE % of Inhibition (Conc. 20 μM); for IC50: average ± standard error (n = 3)
T2 construct: purchased Sigma-Aldrich (St. Louis, MO, USA)
T2 sequence (O42275 24-633): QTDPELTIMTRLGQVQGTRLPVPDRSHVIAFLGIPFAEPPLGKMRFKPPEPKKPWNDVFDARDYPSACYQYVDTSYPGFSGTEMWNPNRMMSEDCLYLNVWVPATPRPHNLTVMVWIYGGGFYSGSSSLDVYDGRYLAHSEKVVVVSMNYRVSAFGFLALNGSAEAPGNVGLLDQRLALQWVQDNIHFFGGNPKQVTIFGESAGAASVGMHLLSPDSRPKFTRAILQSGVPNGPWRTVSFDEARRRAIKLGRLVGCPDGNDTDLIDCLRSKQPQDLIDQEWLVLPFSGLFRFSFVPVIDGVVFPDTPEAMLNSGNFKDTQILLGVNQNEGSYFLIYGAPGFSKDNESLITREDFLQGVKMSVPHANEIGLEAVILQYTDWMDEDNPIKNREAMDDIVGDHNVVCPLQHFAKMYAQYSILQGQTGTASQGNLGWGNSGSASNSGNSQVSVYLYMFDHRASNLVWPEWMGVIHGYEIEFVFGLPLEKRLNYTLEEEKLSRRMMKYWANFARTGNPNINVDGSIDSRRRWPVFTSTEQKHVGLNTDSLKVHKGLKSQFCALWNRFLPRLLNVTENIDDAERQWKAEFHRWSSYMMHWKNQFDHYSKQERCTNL

BChE = target: T3, BChE (Equus caballus, UniProt P81908); test: Type of enzyme inhibition, Lineweaver–Burk plot; format: biochemical, equine
T3 construct: BChE from equine serum (BChE, EC 3.1.1.8); purchased Sigma-Aldrich (St. Louis, MO, USA); host or cells: equine serum
T3 sequence (P81908 whole entry): as the sequence (P81908 whole entry) above
Procedure: The concentrations of substrate and inhibitor used in the assay are given in Section 3.3.1.
The type of enzyme inhibition was assessed using Lineweaver–Burk plots, which represent a linear transformation of the Michaelis–Menten equation. This method enables visual classification of inhibition type by plotting the reciprocal of the initial reaction velocity (1/Vo) against the reciprocal of the substrate concentration (1/[S]).
The intersection pattern of the fitted lines was used to identify the inhibition mechanism. All tests were replicated three times.

[6] = ATCC25923, 60 µL of 1 mg/mL per well, ZOI including the well (6 mm), ± SD, n = 3, ciprofloxacin disk 5 μg, read-out: Staphylococcus aureus ATCC 25923 ZOI

Compound	Staphylococcus aureus ATCC 25923 ZOI ([1]; 60 µL of 1 mg/mL per well, ZOI including the well (6 mm), ± SD, n = 3, ciprofloxacin disk 5 μg) [mm]	zone of inhibition at 1000 µg/mL [1, 6] [mm]	zone of inhibition at 1000 µg/mL [2] [mm]	MIC (S. aureus ATCC 25923) [µg/mL]	MIC [3] [µg/mL]	inhibition at 20 µM [4] [%]	inhibition at 20 µM [5] [%]	Antibacterial activity in words [1]	IC50 [4] [µM]	zone of inhibition at 1000 µg/mL ([1]; ATCC25923, read-out: Staphylococcus aureus ATCC 25923 ZOI, 60 µL of 1 mg/mL per well, ZOI including the well (6 mm), ± SD, n = 3, ciprofloxacin disk 5 μg) [mm]	Selectivity BChE/AChE [4]	IC50 [5] [µM]	α value (affinity constant) (BChE; from Lineweaver–Burk plot)	Type of inhibition (BChE; substrate 1–8 mM, inhibitor 4, 8, 12 μM)
O=C(O)c1cn(C2CC2)c2cc(N3CCNCC3)c(F)cc2c1=O [Ciprofloxacine, ciprofloxacin, reference compound]	27.00 ± 1.62	27	5.24 ± 1.16	0.78 (≈ 2.35 µM)	0.78 (≈ 2.35 µM)	–	–	–	–	–	–	–	–	–
O=C1C(=O)N(Cc2cn(CCOc3cc(=O)oc4ccccc34)nn2)c2ccc(Br)cc21 [Compound 6a4, 5-bromo-1-((1-(2-((2-oxo-2H-chromen-4-yl)oxy)ethyl)-1H-1,2,3-triazol-4-yl)methyl)indoline-2,3-dione]	–	12 to 20	–	12.5 (≈ 25.2 µM)	–	22.7 ± 3.87	4.57 ± 0.87	showed activity	–	–	–	–	–	–
O=C1C(=O)N(Cc2cn(CCCOc3cc(=O)oc4ccccc34)nn2)c2ccc(Br)cc21 [Compound 6b4, 5-bromo-1-((1-(3-((2-oxo-2H-chromen-4-yl)oxy)propyl)-1H-1,2,3-triazol-4-yl)methyl)indoline-2,3-dione]	–	–	14	6.25 (≈ 12.3 µM)	25 (≈ 49.1 µM)	66.2 ± 8.11	22.9 ± 2.11	moderate antibacterial effects	13.3 ± 2.19	20	–	–	–	–
O=C1C(=O)N(Cc2cn(CCCCOc3cc(=O)oc4ccccc34)nn2)c2ccccc21 [Compound 6c1, 1-((1-(4-((2-oxo-2H-chromen-4-yl)oxy)butyl)-1H-1,2,3-triazol-4-yl)methyl)indoline-2,3-dione]	–	8.67 ± 1.15	1.74 ± 0.29	–	–	84.5 ± 8.46	67.1 ± 3.27	only weak antibacterial activity	1.74 ± 0.29	–	8.78	15.3 ± 1.22	greater than 1	mixed-type inhibition
O=C1C(=O)N(Cc2cn(CCCCOc3cc(=O)oc4ccccc34)nn2)c2ccc(F)cc21 [Compound 6c2, 5-fluoro-1-((1-(4-((2-oxo-2H-chromen-4-yl)oxy)butyl)-1H-1,2,3-triazol-4-yl)methyl)indoline-2,3-dione]	–	12 ± 2.65	5.51 ± 1.38	–	–	79.1 ± 5.49	61 ± 3.49	only weak antibacterial activity	5.51 ± 1.38	–	3.11	17.1 ± 1.65	–	–

Reference: article PMC12114297 (Molecules, 2025)
